Assay results taken from paper PMC10826043 (BMC Complementary Medicine and Therapies, 2024).
Where two headings read alike, the source gives them in different places.

Legend:
[1] = target: α-amylase; conditions: validation set, cited from earlier work
[2] = target: T1, α-amylase from porcine pancreas (Sus scrofa, UniProt P00690); assay: In vitro pancreatic α-amylase inhibitory assay (starch/DNS, 540 nm); format: biochemical; conditions: 1% starch, pH 6.9, 25 °C, read-out: IC50 (α-amylase inhibition)
T1 construct: α-amylase from porcine pancreas (A3176); purchased Sigma-Aldrich (Germany) A3176; host or cells: porcine pancreas (tissue-derived)
T1 sequence (P00690 16-511): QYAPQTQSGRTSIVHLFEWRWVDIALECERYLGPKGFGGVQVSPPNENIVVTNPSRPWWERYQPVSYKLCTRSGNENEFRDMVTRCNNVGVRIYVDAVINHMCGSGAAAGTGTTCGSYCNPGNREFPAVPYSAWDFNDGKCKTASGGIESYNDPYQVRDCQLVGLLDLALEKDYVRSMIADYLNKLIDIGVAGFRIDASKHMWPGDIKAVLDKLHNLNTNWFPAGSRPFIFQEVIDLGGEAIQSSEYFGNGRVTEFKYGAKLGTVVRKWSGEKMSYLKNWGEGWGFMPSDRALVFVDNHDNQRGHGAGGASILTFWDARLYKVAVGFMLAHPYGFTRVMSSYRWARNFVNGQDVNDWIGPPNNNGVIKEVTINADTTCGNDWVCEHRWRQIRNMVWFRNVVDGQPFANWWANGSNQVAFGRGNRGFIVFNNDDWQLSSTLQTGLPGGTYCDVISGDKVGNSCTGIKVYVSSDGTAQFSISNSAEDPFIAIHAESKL
Experimental: Analytical purity grade solvents were used throughout the study.
With reference to the established technique, the assay was carried out quantitatively with minor adjustments. Initially, 500µL test solution was preincubated with 500µL α-amylase solution (0.55 unit/mL) at 25°C for 10 min. The α-amylase was prepared in a buffer solution (0.02M sodium phosphate pH 6.9 with 0.006M NaCl). Afterwards, 500µL of 1% w/v starch in buffer solution was mixed in and left to incubate for 10 min at 25°C. To bring the reaction to a halt, 1mL dinitrosalicylic acid (DNS) was introduced and the mixture was placed in a boiling water bath for 3.5 min. After cooling to room temperature, the mixture was then diluted using 10mL distilled water and absorbance was measured using a Laxco spectrophotometer (α1502, Laxco Inc., USA) at λ 540nm. Blanks used throughout the experiment were made by adding pure buffer instead of α-amylase solution. […] To calculate the pancreatic α-amylase inhibitory activity, the following equation was used: %Inhibtion=100×1-Abs540nmExtract-Abs540nmPositivecontrol/Abs540nmNegativecontrol-Abs540nmPositivecontrol

[3] = target: T2, α-amylase (Sus scrofa, UniProt P00690); assay: Combination analysis of α-amylase inhibition (CompuSyn: median-effect, isobologram, CI, DRI); format: biochemical, porcine; conditions: for Dose (mM) Kaempferol: kaempferol alone
T2 construct: α-amylase from porcine pancreas (A3176); purchased Sigma-Aldrich (Germany) A3176; host or cells: porcine pancreas (tissue-derived)
T2 sequence (P00690 16-511): T1 sequence (P00690 16-511)
Description: These include: median effect, isobolographic, combination index, and lastly, dose reduction index analyses.
Data input included each inhibitors’ independent activity and the summation of both inhibitors’ activity when used in conjunction of each other. […] 2.6.
This method of analysis relies on its namesake equation, the median-effect equation which stems from the general mass-action law principle. Each inhibitor’s sigmoidal dose–effect plot was individually generated in addition to their respective combination. Thereafter, the plot was transfigured linearly into median-effect plots. The median-effect equation is described as: fa/fu=D/Dm^m
D represents the dose of the inhibitor, Dm is the inhibitor’s dose causing a decrease of 50% in the enzyme’s activity, fa is the fraction affected by dose D , fu is the unaffected fraction ( fu = 1 – fa ), and m the curve’s sigmoidicity coefficient. Through logarithmic transformation, the equation becomes: Logfa/fu=mlogD-mlog(Dm)
This, in turn, results in the median-effect plot. A plot where y=log(fa/fu) against x=log(D) with m being the slope and log(Dm) , the x-intercept. Dm and m are obtained from the median-effect plot. To determine the data’s conformity to the general mass-action principle, the linear correlation coefficient (r) of the plot is assessed.
Using each inhibitor’s individual effect, this method of analysis is employed to assess the combined effect of two inhibitors. A graph, wherein the x- and y- axes represent the doses of inhibitors A and B, respectively, is plotted. The doses, a and b denote the dose of inhibitor A and B, respectively, resulting in the same efficacy when used individually. (e.g.: At x % inhibition, a = CA,x and b = CB,x ). To assess the combined effects of inhibitors A and B, an additive line must first be established. This is accomplished by connecting two points of the same efficacy (e.g.: connecting a with b). Based on the respective position of the combination data points relative to the additive line, the nature of the interaction can be determined; synergism, addition, or antagonism are indicated by data points lying below, on, or above the additive line, respectively.
The combination index (CI) quantitatively evaluates the type of interaction between two inhibitors at a series of inhibition levels. CI is calculated by means of the following equation [38]: CI=CA,x/ICx,A+CB,x/ICx,B Where ICx,A and ICx,B are the doses of inhibitors A and B, respectively, required to produce x % inhibition when each inhibitor is used individually. Whereas CA,x and CB,x are the doses of inhibitors A and B, respectively, required to produce x % inhibition when a binary mixture is used. Based on the resulting CI, the nature of the inhibitors’ interaction can be concluded. A CI lower than, equal to, or greater than 1 is indicative of synergism, addition, or antagonism, respectively. Alternatively, the interaction present between the two inhibitors can be deduced via the combination index ( fa -CI) plot.
The dose reduction index (DRI) was calculated for synergistic binary combinations to measure the fold decrease in the dose of each inhibitor at a given effect level, relative to the dose of each inhibitor when used solitarily resulting in the same effect. DRI can be calculated as follows: DRI=IC50[solitaryinhibitor]/IC50[inhibitorincombination]
DRI values > 1 are favored, reflecting a decrease in dose while maintaining or enhancing the inhibitor’s efficacy.

For `O=C(O)c1cc(O)c(O)c(O)c1` [Gallic acid], the IC50 ([1]; supplement ref [7]) is given as 27.8 ± 2.06 µM.
For `COc1cc(-c2oc3cc(O)cc(O)c3c(=O)c2O)ccc1O` [Isorhamnetin], the IC50 ([1]; supplement ref [12]) is listed as 24900 ± 427 µM.
In the case of `COc1ccc(-c2oc3cc(O)cc(O)c3c(=O)c2O)cc1` [Kaempferide], the IC50 ([1]; supplement ref [3]) is given as 22.9 ± 3.17 µM.
In the case of `O=c1c(O)c(-c2ccc(O)cc2)oc2cc(O)cc(O)c12` [Kaempferol], the IC50 [2] is given as 4.84 ± 0.14 mM, the IC50 ([1]; supplement ref [3]) is given as 16.5 ± 1.84 µM and the IC50 [3] is given as 4.84 mM. For the same molecule, the “m (slope of median-effect plot)” value [3] was 1.18, the “r (correlation coefficient of median-effect plot)” value [3] was 1.00 and the “DRI Kaempferol” value ([3]; fold dose reduction in combination with acarbose at 26% inhibition) was 2.66. For the same molecule, the “DRI Kaempferol” value ([3]; fold dose reduction in combination with acarbose at 86% inhibition) was 2.27, the “DRI Kaempferol” value ([3]; fold dose reduction in combination with acarbose at 91% inhibition) was 1.11 and the “Dose (mM) Kaempferol” value ([3]; dose needed for 26% inhibition) was 1.99 mM. For the same molecule, the “Dose (mM) Kaempferol” value ([3]; dose needed for 86% inhibition) was 22.6 mM and the “Dose (mM) Kaempferol” value ([3]; dose needed for 91% inhibition) was 34.5 mM.
In the case of `Oc1cc(O)c2c(c1)O[C@H](c1ccc(O)c(O)c1)[C@H](O)C2` [L-epicatechin], the IC50 ([1]; supplement ref [3]) is listed as 31.5 ± 2.21 µM.
For `O=c1cc(-c2ccc(O)c(O)c2)oc2cc(O)cc(O)c12` [Luteolin], the IC50 [2] is given as 6.32 ± 0.03 mM and the IC50 ([1]; supplement ref [3]) is given as 14.6 ± 0.74 µM.
In the case of `O=c1c(O)c(-c2cc(O)c(O)c(O)c2)oc2cc(O)cc(O)c12` [Myricetin], the IC50 [2] is given as 4.91 ± 0.06 mM and the IC50 ([1]; supplement ref [8]) is given as 107 ± 6 µM.
For `O=C1C[C@@H](c2ccc(O)cc2)Oc2cc(O)cc(O)c21` [Naringenin], the IC50 ([1]; supplement ref [3]) is given as 21.9 ± 3.21 µM.
In the case of `COc1cc(-c2[o+]c3cc(O)cc(O)c3cc2O[C@@H]2O[C@H](CO)[C@@H](O)[C@H](O)[C@H]2O)ccc1O` [Peonidin-3-glucoside], the IC50 ([1]; supplement ref [5]) is listed as 75 ± 7 µM.
For `O=C(O)c1ccc(O)c(O)c1` [Protocatechuic acid], the IC50 ([1]; supplement ref [10]) is listed as 2650 ± 160 µM.
For `O=c1c(O)c(-c2ccc(O)c(O)c2)oc2cc(OC3OC(CO)C(O)C(O)C3O)c(O)c(O)c12` [Quercetagetin-7-O-β-D-glucopyranoside], the IC50 ([1]; supplement ref [3]) is listed as 8.04 ± 0.69 µM.
For `COc1c(-c2ccc(O)c(O)c2)oc2cc(O)cc(O)c2c1=O` [Quercetin-3-methylether, quercetin-3-methyl ether], the IC50 [2] is given as 6.37 ± 0.11 mM and the IC50 ([1]; supplement ref [3]) is given as 13.6 ± 2.04 µM.
Work on `COc1cc(O)c2c(=O)c(O)c(-c3ccc(O)c(O)c3)oc2c1` [Quercetin-7-methylether, quercetin-7-methyl ether] yielded an IC50 [2] of 5.01 ± 0.07 mM.
Work on `O=C(/C=C/c1ccc(O)c(O)c1)O[C@H](Cc1ccc(O)c(O)c1)C(=O)O` [Rosmarinic Acid, rosmarinic acid] yielded an IC50 [2] of 7 ± 0.09 mM.
For `O=C(O)c1ccccc1O` [Salicylic acid], the IC50 ([1]; supplement ref [13]) is listed as 13000 µM.
For `COc1cc(/C=C/C(=O)O)cc(OC)c1O` [Sinapic acid], the IC50 ([1]; supplement ref [13]) is given as 37000 µM.
In the case of `COc1cc(C(=O)O)cc(OC)c1O` [Syringic acid], the IC50 ([1]; supplement ref [10]) is listed as 1980 ± 10 µM.
For `COc1cc(C(=O)O)ccc1O` [Vanillic acid], the IC50 ([1]; supplement ref [10]) is given as 2050 ± 10 µM.
In the case of `COc1cc(C=O)ccc1O` [Vanillin], the IC50 ([1]; supplement ref [13]) is listed as 71000 µM.
For `O=C(O)C=Cc1ccc(O)cc1` [p-Coumaric acid], the IC50 ([1]; supplement ref [13]) is listed as 34100 µM.
